Assay results published in the supplement of paper PMC10307832.

Columns and labels:
Experiment in all cases: relative viability (nuclei count vs DMSO), 5 days (fraction); higher = more cells survive
Pictilisib + Linsitinib = compound: CS(=O)(=O)N1CCN(Cc2cc3nc(-c4cccc5[nH]ncc45)nc(N4CCOCC4)c3s2)CC1 [Pictilisib] + C[C@]1(O)C[C@@H](c2nc(-c3ccc4ccc(-c5ccccc5)nc4c3)c3c(N)nccn32)C1 [Linsitinib] (partner 1 µM)
Method in brief: (§1)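 After 5 days of treatment, lung cancer cells in 1536-well plates were fixed and stained in a single step (final 0.05% Triton X-100, 1% formaldehyde, 1 ug/ml Hoechst) and their nuclei counted on 4× images. Treatment had been applied by pin tool the day after seeding as one drug alone or as a fixed anchor-drug dose with five library-drug doses (not always all listed) in √10 steps. Relative viability is the nuclei count of treated wells divided by that of vehicle wells, and values are medians of duplicate plates.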

MK-2206 + Decitabine = compound: NC1(c2ccc(-c3nc4ccn5c(=O)[nH]nc5c4cc3-c3ccccc3)cc2)CCC1 [MK-2206] + Nc1ncn([C@H]2C[C@H](O)[C@@H](CO)O2)c(=O)n1 [Decitabine] (partner 2 µM)
Method in brief: as §1

Pictilisib = compound: CS(=O)(=O)N1CCN(Cc2cc3nc(-c4cccc5[nH]ncc45)nc(N4CCOCC4)c3s2)CC1 [Pictilisib]
Method in brief: (§2)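 A plate was accepted only when its control CV was below 25% and the cells had doubled at least once. Viability is defined from nuclear counts as treated wells divided by vehicle wells, with the median taken across plates. That median covers lung cancer cell lines grown in 1536-well plates, dosed by pinning at five √10-spaced library-drug concentrations, and counted in MetaXpress from 4× Hoechst images after 5 days.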

MK-2206 = compound: NC1(c2ccc(-c3nc4ccn5c(=O)[nH]nc5c4cc3-c3ccccc3)cc2)CCC1 [MK-2206]
Method in brief: as §2

How did the relative viability (Pictilisib + Linsitinib; first compound 0.02 µM) turn out when UMC-11 was run?
Its relative viability is 0.973.

And the relative viability (Pictilisib + Linsitinib; first compound 0.06325 µM)?
Its relative viability is 1.03.

And the relative viability (Pictilisib + Linsitinib; first compound 0.6325 µM)?
The relative viability was 1.07.

And the relative viability (Pictilisib + Linsitinib; first compound 2 µM)?
The relative viability was 0.928.

What about the relative viability (MK-2206 + Decitabine; first compound 0.01 µM) of the same cell line?
Its relative viability is 0.669.

And the relative viability (MK-2206 + Decitabine; first compound 0.03162 µM)?
Its relative viability is 0.643.

What about the relative viability (MK-2206 + Decitabine; first compound 0.3162 µM) of the same cell line?
Its relative viability is 0.569.

And the relative viability (MK-2206 + Decitabine; first compound 1 µM)?
Its relative viability is 0.716.

And the relative viability (Pictilisib; 0.02 µM)?
The relative viability was 0.989.

What about the relative viability (Pictilisib; 0.06325 µM) of the same cell line?
Its relative viability is 1.14.

And the relative viability (Pictilisib; 0.6325 µM)?
Its relative viability is 1.07.

And the relative viability (Pictilisib; 1 µM, anchor plate)?
The relative viability was 0.846.

And the relative viability (Pictilisib; 2 µM)?
The relative viability was 0.937.

And the relative viability (MK-2206; 0.01 µM)?
The relative viability was 0.94.

What about the relative viability (MK-2206; 0.03162 µM) of the same cell line?
Its relative viability is 1.02.

What about the relative viability (MK-2206; 0.3162 µM) of the same cell line?
The relative viability was 1.07.

What about the relative viability (MK-2206; 1 µM) of the same cell line?
Its relative viability is 0.937.
